Laboratory results published in patent US11498896B2 (The Broad Institute, Inc., priority 2014, dated 2022).

Assays:
human D2R/β-arrestin [1] = molecular target: T1, human D2R/β-arrestin (Homo sapiens (Human), UniProt P14416); assay: β-arrestin agonist assay (PathHunter); type: cell-based; settings: CHO-K1 cells expressing human D2R/β-arrestin; agonist mode
Protocol: The detection reagent (9.6 μL, Buffer:Emerald II:Galactor-Star in a 19:5:1 ratio, i.e., 14.06 mL:3.7 mL:0.74 mL=18.5 mL) was then added to the agonist plates.

human D2R/β-arrestin [2] = molecular target: T1, human D2R/β-arrestin; assay: Gi/cAMP agonist assay (Lance Ultra cAMP, forskolin); type: cell-based; settings: CHO-K1 cells expressing human D2R/β-arrestin; agonist mode, 2.5 μM forskolin
Protocol: Eu-cAMP tracer solution (10 μl, PerkinElmer, 360 μl of Tracer in 17.64 ml kit buffer) and ULight-anti-cAMP solution (10 μl, 120 μL antibody in 17.88 ml kit buffer) was then added to each well.

human D2R/β-arrestin [3] = molecular target: T1, human D2R/β-arrestin; assay: cell-based; settings: β-arrestin Antagonist, CHO-K1 cells expressing human D2R/β-arrestin; antagonist mode, quinpirole 130 nM
human D2R/β-arrestin [4] = molecular target: T1, human D2R/β-arrestin; assay: cell-based; settings: cAMP Antagonist, CHO-K1 cells expressing human D2R/β-arrestin; antagonist mode, 2.5 μM forskolin and 2.7 nM quinpirole

T1 sequence (P14416 whole entry): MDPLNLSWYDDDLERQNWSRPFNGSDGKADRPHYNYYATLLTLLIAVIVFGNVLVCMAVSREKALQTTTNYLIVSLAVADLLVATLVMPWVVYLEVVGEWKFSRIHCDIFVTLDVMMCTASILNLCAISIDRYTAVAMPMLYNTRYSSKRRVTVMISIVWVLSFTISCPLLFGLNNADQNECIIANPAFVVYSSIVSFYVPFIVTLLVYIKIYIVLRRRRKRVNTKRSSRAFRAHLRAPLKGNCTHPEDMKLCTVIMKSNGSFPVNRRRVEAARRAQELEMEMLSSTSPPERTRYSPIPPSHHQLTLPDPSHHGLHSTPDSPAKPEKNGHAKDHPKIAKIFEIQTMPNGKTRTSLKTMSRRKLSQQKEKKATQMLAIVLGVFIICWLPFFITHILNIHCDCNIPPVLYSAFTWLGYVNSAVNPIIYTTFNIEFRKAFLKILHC

| Structure (SMILES) | EC50 (human D2R/β-arrestin [1]) [µM] | EC50 (human D2R/β-arrestin [2]) [µM] | IC50 (human D2R/β-arrestin [3]) [µM] | IC50 (human D2R/β-arrestin [4]) [µM] |
| --- | --- | --- | --- | --- |
| CC1(Oc2ccccc2)CCN(CCOc2ccccc2S(C)(=O)=O)CC1 [Compound 141, 4-methyl-1-(2-(2-(methylsulfonyl)phenoxy)ethyl)-4-phenoxypiperidine] | > 30 | 1 to 10 | 0.1 to 1 | 0.1 to 1 |
| CC1(Oc2ccc(Cl)cc2)CCN(CC2COc3ccccc3O2)CC1 (stereo not drawn) [Compound 142, 4-(4-chlorophenoxy)-1-((2,3-dihydrobenzo[b][1,4]dioxin-2-yl)methyl)-4-methylpiperidine] | 0.1 to 1 | < 0.1 | > 30 | > 30 |
| CC1(Oc2ccc(Cl)cc2)CCN(CCOC2CCCCC2)CC1 [Compound 143, 4-(4-chlorophenoxy)-1-(2-(cyclohexyloxy)ethyl)-4-methylpiperidine] | > 30 | 10 to 30 | 10 to 30 | > 30 |
| Clc1ccc2c(c1)C[C@@H]1CN(CCOc3ccccc3)C[C@H]1O2 [Compound 145, (3aS,9aR)-7-chloro-2-(2-phenoxyethyl)-1,2,3,3a,9,9a-hexahydrochromeno[2,3-c]pyrrole] | > 30 | > 30 | 10 to 30 | 0.1 to 1 |
| CC1(Oc2ccc(Cl)cc2)CCN(CCOc2ccccc2OC(F)(F)F)CC1 [Compound 146, 4-(4-chlorophenoxy)-4-methyl-1-(2-(2-(trifluoromethoxy)phenoxy)ethyl) piperidine] | 0.1 to 1 | 0.1 to 1 | 0.1 to 1 | > 30 |
| CC1(Oc2ccc(Cl)cc2)CCN(CCOc2ccc(C(F)(F)F)nc2)CC1 [Compound 147, 5-(2-(4-(4-chlorophenoxy)-4-methylpiperidin-1-yl)ethoxy)-2-(trifluoromethyl)pyridine] | < 0.1 | < 0.1 | > 30 | > 30 |
| CC1(Oc2ccc(Cl)cc2)CCN(CCOc2ccc(C(F)(F)F)cn2)CC1 [Compound 148, 2-(2-(4-(4-chlorophenoxy)-4-methylpiperidin-1-yl)ethoxy)-5-(trifluoromethyl) pyridine] | > 30 | 10 to 30 | > 30 | > 30 |
| CC1(Oc2ccc(Cl)cc2)CCN(CCOc2ccc(F)cc2)CC1 [Compound 149, 4-(4-chlorophenoxy)-1-(2-(4-fluorophenoxy)ethyl)-4-methylpiperidine] | 0.1 to 1 | < 0.1 | 1 to 10 | > 30 |
| Cc1ccc(OCCN2CCC(C)(Oc3ccc(Cl)cc3)CC2)cc1 [Compound 150, 4-(4-chlorophenoxy)-4-methyl-1-(2-(p-tolyloxy)ethyl)piperidine] | 0.1 to 1 | < 0.1 | > 30 | > 30 |
| CC1(Oc2ccc(Cl)cc2)CCN(CCOc2ccc(Cl)cc2)CC1 [Compound 151, 4-(4-chlorophenoxy)-1-(2-(4-chlorophenoxy)ethyl)-4-methylpiperidine] | 0.1 to 1 | < 0.1 | > 30 | > 30 |
| CC1(Oc2ccc(Cl)cc2)CCN(CCOc2ccc(S(C)(=O)=O)cc2)CC1 [Compound 152, 4-(4-chlorophenoxy)-4-methyl-1-(2-(4-(methylsulfonyl)phenoxy)ethyl)piperidine] | > 30 | 10 to 30 | 10 to 30 | 10 to 30 |
| CC(=O)c1ccc(OCCN2CCC(C)(Oc3ccc(Cl)cc3)CC2)cc1 [Compound 153, 1-(4-(2-(4-(4-chlorophenoxy)-4-methylpiperidin-1-yl)ethoxy)phenyl)ethanone] | > 30 | > 30 | 1 to 10 | 1 to 10 |
| CC(O)c1ccc(OCCN2CCC(C)(Oc3ccc(Cl)cc3)CC2)cc1 (stereo not drawn) [Compound 154, 1-(4-(2-(4-(4-chlorophenoxy)-4-methylpiperidin-1-yl)ethoxy)phenyl)ethanol] | > 30 | > 30 | 10 to 30 | 0.1 to 1 |
| CC1(Oc2ccc(Cl)cc2)CCN(CCOc2ccc(C(C)(C)O)cc2)CC1 [Compound 155, 2-(4-(2-(4-(4-chlorophenoxy)-4-methylpiperidin-1-yl)ethoxy)phenyl)propan-2-ol] | > 30 | > 30 | 1 to 10 | 1 to 10 |
| CC1(Oc2ccc(Cl)cc2)CCN(CCOc2cccc(F)c2C(F)(F)F)CC1 [Compound 156, 4-(4-chlorophenoxy)-1-(2-(3-fluoro-2-(trifluoromethyl)phenoxy)ethyl)-4-methylpiperidine] | 0.1 to 1 | < 0.1 | > 30 | > 30 |
| CC1(Oc2ccc(Cl)cc2)CCN(CCOc2ccc(F)cc2S(C)(=O)=O)CC1 [Compound 158, 4-(4-chlorophenoxy)-1-(2-(4-fluoro-2-(methylsulfonyl)phenoxy)ethyl)-4-methylpiperidine] | > 30 | 0.1 to 1 | 1 to 10 | 0.1 to 1 |
| COc1ccc(F)cc1OCCN1CCC(C)(Oc2ccc(Cl)cc2)CC1 [Compound 159, 4-(4-chlorophenoxy)-1-(2-(5-fluoro-2-methoxyphenoxy)ethyl)-4-methylpiperidine] | > 30 | < 0.1 | 0.1 to 1 | 1 to 10 |
| COc1cc(F)ccc1OCCN1CCC(C)(Oc2ccc(Cl)cc2)CC1 [Compound 160, 4-(4-chlorophenoxy)-1-(2-(4-fluoro-2-methoxyphenoxy)ethyl)-4-methyl piperidine] | > 30 | > 30 | 1 to 10 | 0.1 to 1 |
| CC1(Oc2ccc(Cl)cc2)CCN(CCOc2cncs2)CC1 [Compound 161, 5-(2-(4-(4-chlorophenoxy)-4-methylpiperidin-1-yl)ethoxy)thiazole] | 0.1 to 1 | < 0.1 | 10 to 30 | > 30 |

Second part, the compound after the results:

| EC50 (human D2R/β-arrestin [1]) [µM] | EC50 (human D2R/β-arrestin [2]) [µM] | IC50 (human D2R/β-arrestin [3]) [µM] | IC50 (human D2R/β-arrestin [4]) [µM] | Structure (SMILES) |
| --- | --- | --- | --- | --- |
| > 30 | 1 to 10 | 0.1 to 1 | < 0.1 | CC1(Oc2ccc(Cl)cc2)CCN(CCOc2ncccc2C(F)(F)F)CC1 [Compound 162, 2-(2-(4-(4-chlorophenoxy)-4-methylpiperidin-1-yl)ethoxy)-3-(trifluoromethyl)pyridine] |
| 1 to 10 | < 0.1 | > 30 | > 30 | CC1(Oc2ccc(Cl)cc2)CCN(CCOc2cccnc2C(F)(F)F)CC1 [Compound 163, 3-(2-(4-(4-chlorophenoxy)-4-methylpiperidin-1-yl)ethoxy)-2-(trifluoromethyl)pyridine] |
| 10 to 30 | 1 to 10 | 1 to 10 | > 30 | CC1(Oc2ccc(Cl)cc2)CCN(CCOc2cc(Cl)ccc2C(F)(F)F)CC1 [Compound 165, 1-(2-(5-chloro-2-(trifluoromethyl)phenoxy)ethyl)-4-(4-chlorophenoxy)-4-methylpiperidine] |
| > 30 | 1 to 10 | 1 to 10 | 1 to 10 | CC1(Oc2ccc(Cl)cc2)CCN(CCOc2ccc3c(c2)NC(=O)CC3)CC1 [Compound 166, 7-(2-(4-(4-chlorophenoxy)-4-methylpiperidin-1-yl)ethoxy)-3,4-dihydroquinolin-2(1H)-one] |
| > 30 | 1 to 10 | 1 to 10 | 1 to 10 | CC1(Oc2ccc(Cl)cc2)CCN(CCOc2ccncc2C(F)(F)F)CC1 [Compound 167, 4-(2-(4-(4-chlorophenoxy)-4-methylpiperidin-1-yl)ethoxy)-3-(trifluoromethyl)pyridine] |
| > 30 | > 30 | 1 to 10 | 1 to 10 | CC1(Oc2ccc(Cl)cc2)CCN(CCNc2ccccc2C(F)(F)F)CC1 [Compound 168, N-(2-(4-(4-chlorophenoxy)-4-methylpiperidin-1-yl)ethyl)-2-(trifluoromethyl) aniline] |
| > 30 | > 30 | 1 to 10 | 0.1 to 1 | CN(CCN1CCC(C)(Oc2ccc(Cl)cc2)CC1)c1ccccc1C(F)(F)F [Compound 169, N-(2-(4-(4-chlorophenoxy)-4-methylpiperidin-1-yl)ethyl)-N-methyl-2-(trifluoromethyl)aniline] |
| > 30 | > 30 | > 30 | > 30 | CC(=O)N(CCN1CCC(C)(Oc2ccc(Cl)cc2)CC1)c1ccccc1C(F)(F)F [Compound 170, N-(2-(4-(4-chlorophenoxy)-4-methylpiperidin-1-yl)ethyl)-N-(2-(trifluoromethyl)phenyl)acetamide] |
| > 30 | 0.1 to 1 | > 30 | > 30 | CC1(Oc2ccc(Cl)cc2)CCN(CCOc2ccc3cccc(C(F)(F)F)c3n2)CC1 [Compound 171, 2-(2-(4-(4-chlorophenoxy)-4-methylpiperidin-1-yl)ethoxy)-8-(trifluoromethyl)quinoline] |
| > 30 | 1 to 10 | > 30 | > 30 | CC1(Oc2ccc(Cl)cc2)CCN(CCn2c(=O)ccc3cccc(C(F)(F)F)c32)CC1 [Compound 172, 1-(2-(4-(4-chlorophenoxy)-4-methylpiperidin-1-yl)ethyl)-8-(trifluoromethyl)quinolin-2(1H)-one] |
| 1 to 10 | 0.1 to 1 | > 30 | > 30 | CC1(Oc2ccccc2)CCN(CCOc2ccncc2)CC1 [Compound 173, 4-(2-(4-methyl-4-phenoxypiperidin-1-yl)ethoxy)pyridine] |
